# Laboratory results published in ChEMBL document CHEMBL3045109, “Inhibitory effect of bionic fungicide 2-allylphenol on Botrytis cinerea (Pers. ex Fr.) in vitro” (Pest Manag Sci, 2009).
# Activity calls are given as the source filed them. The calls are words filed in the database; no cut-off is given here.
# Legend:
# Botrytis cinerea [1] = assay: Inhibition of respiratory activity in Botryotinia fuckeliana mycelium assessed as decrease in rate of oxygen consumption at 2 mM by Clark-type oxygen electrode recording analysis in presence of glucose (reference value: 0%); assay type: functional
# Botrytis cinerea [2] = assay: Inhibition of respiratory activity in Botryotinia fuckeliana mycelium assessed as decrease in rate of oxygen consumption at 2 mM by Clark-type oxygen electrode recording analysis in presence of succinate (reference value: 0%); assay type: functional
# Botrytis cinerea [3] = assay: Inhibition of respiratory activity in Botryotinia fuckeliana mycelium assessed as decrease in rate of oxygen consumption at 20 uM by Clark-type oxygen electrode recording analysis in presence of succinate and 2 mM mitochondrial alternative oxidase inhibitor, SHAM (reference value: 0%); assay type: functional
# Botrytis cinerea [4] = assay: Inhibition of respiratory activity in Botryotinia fuckeliana mycelium assessed as decrease in rate of oxygen consumption at 20 uM by Clark-type oxygen electrode recording analysis in presence of glucose and 2 mM mitochondrial alternative oxidase inhibitor, SHAM (reference value: 0%); assay type: functional
# Botrytis cinerea [5] = assay: Inhibition of respiratory activity in Botryotinia fuckeliana mycelium assessed as decrease in rate of oxygen consumption at 20 uM by Clark-type oxygen electrode recording analysis in presence of succinate (reference value: 0%); assay type: functional
# Botrytis cinerea [6] = assay: Inhibition of respiratory activity in Botryotinia fuckeliana mycelium assessed as decrease in rate of oxygen consumption at 20 uM by Clark-type oxygen electrode recording analysis in presence of glucose (reference value: 0%); assay type: functional
# Botrytis cinerea [7] = assay: Induction of respiratory activity in Botryotinia fuckeliana mycelium assessed as rate of oxygen consumption at 10 mg/L after 2 min by Clark-type oxygen electrode recording analysis; assay type: functional
# Botrytis cinerea [8] = assay: Fungistatic activity against Botryotinia fuckeliana grown in liquid medium assessed as increase in mycelium dry weight at 80 mg/L incubated for 24 hr prior to transferring mycelium to drug-free MYS medium measured after 6 hr; assay type: functional
# Botrytis cinerea [9] = assay: Fungicidal activity against Botryotinia fuckeliana grown on PDA medium assessed as inhibition of mycelial growth incubated for 4 to 7 days at 25 degC in presence of 10 mg/L mitochondrial alternative oxidase inhibitor, SHAM; assay type: functional, organism-based
# Botrytis cinerea [10] = assay: Fungicidal activity against Botryotinia fuckeliana grown on YgA medium assessed as inhibition of mycelial growth incubated for 4 days in the dark at 25 degC in presence of fermentable carbon source, glucose; assay type: functional, organism-based; conditions: 96 h
# Botrytis cinerea [11] = assay: Fungicidal activity against Botryotinia fuckeliana grown in liquid medium assessed as inhibition of mycelial growth at 80 mg/L after 12 hr; assay type: functional, organism-based
# Botrytis cinerea [12] = assay: Depletion of ATP content in Botryotinia fuckeliana mycelium at 80 mg/L after 6 hr by reverse phase HPLC analysis; assay type: functional
# Botrytis cinerea [13] = assay: Fungistatic activity against Botryotinia fuckeliana grown in liquid medium assessed as increase in mycelium dry weight at 80 mg/L incubated for 24 hr prior to transferring mycelium to drug-free MYS medium measured after 12 hr; assay type: functional
# Botrytis cinerea [14] = assay: Inhibition of respiratory activity in Botryotinia fuckeliana mycelium assessed as decrease in rate of oxygen consumption at 100 mg/L by Clark-type oxygen electrode recording analysis in presence of glucose (reference value: 0%); assay type: functional
# Botrytis cinerea [15] = assay: Inhibition of respiratory activity in Botryotinia fuckeliana mycelium assessed as rate of oxygen consumption at 100 mg/L after 2 min by Clark-type oxygen electrode recording analysis; assay type: functional
# Botrytis cinerea [16] = assay: Fungicidal activity against Botryotinia fuckeliana grown on YGA medium assessed as inhibition of mycelial growth incubated for 4 days in the dark at 25 degC in presence of non-fermentable carbon source, glycerol; assay type: functional, organism-based; conditions: 96 h
# Botrytis cinerea [17] = assay: Inhibition of respiratory activity in Botryotinia fuckeliana mycelium assessed as rate of oxygen consumption at 100 mg/L by Clark-type oxygen electrode recording analysis in presence of glucose and 2 mM mitochondrial alternative oxidase inhibitor, SHAM; assay type: functional
# Botrytis cinerea [18] = assay: Fungicidal activity against Botryotinia fuckeliana grown in liquid medium assessed as inhibition of mycelial growth after 24 hr; assay type: functional, organism-based
# Botrytis cinerea [19] = assay: Inhibition of respiratory activity in Botryotinia fuckeliana mycelium assessed as rate of oxygen consumption at 100 mg/L by Clark-type oxygen electrode recording analysis in presence of succinate and 2 mM mitochondrial alternative oxidase inhibitor, SHAM; assay type: functional
# Botrytis cinerea [20] = assay: Inhibition of respiratory activity in Botryotinia fuckeliana mycelium assessed as decrease in rate of oxygen consumption at 100 mg/L by Clark-type oxygen electrode recording analysis in presence of succinate (reference value: 0%); assay type: functional
# Botrytis cinerea [21] = assay: Depletion of ATP content in Botryotinia fuckeliana mycelium at 80 mg/L after 24 to 48 hr by reverse phase HPLC analysis; assay type: functional, organism-based
# Botrytis cinerea [22] = assay: Depletion of total adenylate pool in Botryotinia fuckeliana mycelium at 80 mg/L after 24 to 48 hr by reverse phase HPLC analysis; assay type: functional, organism-based
compound,measurement,setting,value
O=C(NO)c1ccccc1O [SALICYLHYDROXAMIC ACID],inhibition at 2000 µM,Botrytis cinerea [1],45%
same,inhibition at 2000 µM,Botrytis cinerea [2],32%
CCCCCC[C@H]1C(=O)O[C@H](C)[C@H](NC(=O)c2cccc(NC=O)c2O)C(=O)O[C@@H](C)[C@@H]1OC(=O)CC(C)C [ANTIMYCIN A],inhibition (INH),Botrytis cinerea [3],100%
same,inhibition (INH),Botrytis cinerea [4],100%
same,inhibition at 20 µM,Botrytis cinerea [5],55%
same,inhibition at 20 µM,Botrytis cinerea [6],77%
C=CCc1ccccc1O [2-ALLYLPHENOL],Activity,Botrytis cinerea [7],30%
same,fold change (FC),Botrytis cinerea [8],0.9
same,growth inhibition (GI),Botrytis cinerea [9],Active
same,EC50,Botrytis cinerea [10],22.9 µg/mL
same,inhibition,Botrytis cinerea [11],Active
same,inhibition at 80 µg/mL,Botrytis cinerea [12],70%
same,fold change (FC),Botrytis cinerea [13],1.7
same,inhibition at 100 µg/mL,Botrytis cinerea [14],46%
same,inhibition at 100 µg/mL,Botrytis cinerea [15],60%
same,EC50,Botrytis cinerea [16],7.1 µg/mL
same,inhibition (INH),Botrytis cinerea [17],100%
same,EC50,Botrytis cinerea [18],25.4 µg/mL
same,inhibition (INH),Botrytis cinerea [19],100%
same,inhibition at 100 µg/mL,Botrytis cinerea [20],48%
same,inhibition,Botrytis cinerea [21],Active
same,inhibition,Botrytis cinerea [22],Active
